Laboratory results reported in patent US7989451B2, “Tricyclic 1,2,4-triazine oxides and compositions for therapeutic use in cancer treatments” (Auckland Uniservices Limited, priority 2005, dated 2011).
Where a name gives a salt, the structure may show the parent alone. Read-outs that look alike come from different tables or passages of the source.

Assays:
[1] = tested on: human cervical carcinoma SiHa; experiment: Proliferation assay (IC50) under aerobic and hypoxic conditions, SiHa; type: cell-based; conditions: for IC50: 4 h drug exposure, sulforhodamine B; for HCR: hypoxic cytotoxicity ratio = IC50 aerobic/IC50 hypoxic
Method: (§1) Compounds representative of the invention were evaluated under both aerobic and hypoxic conditions in a proliferation assay (IC50), using two cell lines: human colon carcinoma HT29, and human cervical carcinoma SiHa (Table 1).
(§2) Drug exposures were performed in 96-well plates (Nunc) either using a 37 DC humidified incubator (20% O2, 5% CO2) or in the incubator compartment (37° C.) of an anaerobic chamber (Shell Lab) where palladium catalyst scrubbed gas (90% N2, 5% H2, 5% CO2) ensures severe anoxia (<0.001% O2). For each experiment, compounds were simultaneously tested under both oxic and hypoxic conditions and included TPZ as an internal control. An 8-methyl-5-nitroquinoline derivative, SN 24349, known to require very low oxygen concentrations for bioactivation (Siim et al., Br. J. Cancer 1994, 70, 596-603) was used to confirm that strict hypoxia was present during the experiment. […] Cell cultures were grown in αMEM (Gibco) containing 5% heat inactivated FCS and maintained in exponential growth phase. For each individual experiment an appropriate number of cells were seeded (HT29=1100; SiHa=1500) into wells in αMEM+10% FCS+10 mM added glucose+100 μM 2′-deoxycytidine (2′dCyd), and allowed to attach for 2-3 h. High glucose (final concentration 17 mM) and the presence of 2′-dCyd minimize hypoxia-induced cell cycle arrest. Cultures were then exposed to drugs, using 3-fold serial dilutions in duplicate, for a further 4 h. Subsequently cells were washed free of compound using complete media (without glucose/2′-dCyd) and allowed to grow for 5 (oxic) or 6 (anoxic) days. Plates were stained with sulforhodamine B as described previously (Wilson et al., J. Med. Chem. 1989, 32, 31-38) and IC50 values determined.
(§3) HCR=Hypoxic cytotoxicity ratio is defined as the ratio of IC50 values under aerobic and hypoxic conditions (IC50 aerobic/IC50 hypoxic).

[2] = tested on: human colon carcinoma HT29; experiment: Proliferation assay (IC50) under aerobic and hypoxic conditions, HT29; type: cell-based; conditions: for IC50: 4 h drug exposure, sulforhodamine B; for HCR: hypoxic cytotoxicity ratio = IC50 aerobic/IC50 hypoxic
Method: as §1, §2, §3

[3] = hypoxic (anaerobic chamber, <0.001% O2), then 6 days growth, read-out: IC50 (μM) hypoxic
[4] = oxic (20% O2), then 5 days growth, read-out: IC50 (μM) oxic
[5] = Homo sapiens, hypoxic (anaerobic chamber, <0.001% O2), then 6 days growth, read-out: IC50 (μM) hypoxic
[6] = Homo sapiens, oxic (20% O2), then 5 days growth, read-out: IC50 (μM) oxic
[7] = Homo sapiens, HT-29, hypoxic (anaerobic chamber, <0.001% O2), then 6 days growth, read-out: IC50 (μM) hypoxic
[8] = Homo sapiens, HT-29, oxic (20% O2), then 5 days growth, read-out: IC50 (μM) oxic

SMILES	melting point [°C]	IC50 [1, 3] [µM]	IC50 [1, 4] [µM]	IC50 [2, 3] [µM]	IC50 [2, 4] [µM]	IC50 [1, 5] [µM]	IC50 [1, 6] [µM]	IC50 [2, 7] [µM]	IC50 [2, 8] [µM]	HCR [1]	HCR [2]
CC(C)(C)[Si](C)(C)OCC1Cc2cc3nc(N)n[n+]([O-])c3cc2C1 (centres unmarked)	169 to 171										
CCc1nc2cc3c(cc2[n+]([O-])n1)CC(CO[Si](C)(C)C(C)(C)C)C3 (centres unmarked)	63 to 65										
C=CCc1nc2cc3c(cc2[n+]([O-])n1)CC(CO[Si](C)(C)C(C)(C)C)C3 (centres unmarked)	49 to 52										
[O-][n+]1nc(CCCN2CCOCC2)nc2cc3c(cc21)CC(CO)C3 (centres unmarked) (as salt: hydrochloride) [Compound 140, {3-[3-(4-Morpholinyl)propyl]-1-oxido-7,8-dihydro-6H-indeno[5,6-e][1,2,4]triazin-7-yl}methanol]	210 to 212										
CCN1Cc2cc3c(cc2C1)[n+]([O-])c(N)n[n+]3[O-] (as salt: hydrochloride) [Compound 250, 7-Ethyl-7,8-dihydro-6H-[1,2,4]triazino[5,6-f]isoindol-3-amine 1,4-Dioxide]	230										
Nc1nc2ccc3c(c2[n+]([O-])n1)CCC3 [Compound 4, 8,9-Dihydro-7H-indeno[5,4-e][1,2,4]triazin-3-amine 1-Oxide]	270 to 274										
[O-][n+]1nc(NCCCN2CCOCC2)[n+]([O-])c2ccc3c(c21)CCC3 [Compound 15, N-[3-(1-Morpholinyl)propyl]-8,9-dihydro-7H-indeno[5,4-e][1,2,4]triazin-3-amine 1,4-Dioxide]		13.9	460	37.6	902					33	24
CCN(CC)CCNc1n[n+]([O-])c2cc3c(cc2[n+]1[O-])CCC3 [Compound 27, N^1-(1,4-Dioxido-7,8-dihydro-6H-indeno[5,6-e][1,2,4]triazin-3-yl)-N^2,N^2-diethyl-1,2-ethanediamine]						1.1	143	4.2	254	133	61
CN(C)CCNc1n[n+]([O-])c2c3c(ccc2[n+]1[O-])CCCC3 [Compound 173, N^1-(1,4-Dioxido-7,8,9,10-tetrahydronaphtho[2,1-e][1,2,4]triazin-3-yl)-N^2,N^2-dimethyl-1,2-ethanediamine]						1	62	3.4	60.5	64	18
CN(C)CCNc1n[n+]([O-])c2c3c(ccc2[n+]1[O-])OCCC3 [Compound 237, N^1-(1,4-Dioxido-9,10-dihydro-8H-chromeno[6,5-e][1,2,4]triazin-3-yl)-N^2,N^2-dimethyl-1,2-ethanediamine]						0.67	43.8	4.1	59.1	66	14
[O-][n+]1nc(NCCCN2CCOCC2)[n+]([O-])c2cc3c(cc21)OCCC3 [Compound 244, N-[3-(4-Morpholinyl)propyl]-7,8-dihydro-6H-chromeno[6,7-e][1,2,4]triazin-3-amine 1,4-Dioxide]						3.6 ± 0.5	145 ± 29	11 ± 3	188 ± 51	41 ± 10	19 ± 5
CCN1Cc2cc3c(cc2C1)[n+]([O-])c(N)n[n+]3[O-] [Compound 250, 7-Ethyl-7,8-dihydro-6H-[1,2,4]triazino[5,6-f]isoindol-3-amine 1,4-Dioxide]						0.85	36 ± 32	1.5	6.2	80	

Now from value to molecule, other results behind:

melting point [°C]	IC50 [1, 3] [µM]	IC50 [1, 4] [µM]	IC50 [2, 3] [µM]	IC50 [2, 4] [µM]	IC50 [1, 5] [µM]	IC50 [1, 6] [µM]	IC50 [2, 7] [µM]	IC50 [2, 8] [µM]	SMILES	HCR [1]	HCR [2]
184 to 185									[O-][n+]1nc(NCCN2CCOCC2)[n+]([O-])c2cc3c(cc21)CCC3 (as salt: hydrochloride) [Compound 45, N-[2-(4-Morpholinyl)ethyl]-7,8-dihydro-6H-indeno[5,6-e][1,2,4]triazin-3-amine 1,4-Dioxide]		
131 to 133									CCc1n[n+]([O-])c2cc3c(cc2[n+]1[O-])CC(CCN1CCOCC1)C3 (centres unmarked) (as salt: hydrochloride) [Compound 164, 3-Ethyl-7-[2-(4-morpholinyl)ethyl]-7,8-dihydro-6H-indeno[5,6-e][1,2,4]triazine 1,4-Dioxide]		
182 to 185									[O-][n+]1nc(NCCCN2CCOCC2)[n+]([O-])c2cc3c(cc21)CCCC3 (as salt: hydrochloride) [Compound 180, N-[3-(4-Morpholinyl)propyl]-6,7,8,9-tetrahydronaphtho[2,3-e][1,2,4]triazin-3-amine 1,4-Dioxide]		
					46 ± 11	1750 ± 148	93 ± 11	1390 ± 349	COC1CCCN(CCNc2n[n+]([O-])c3cc4c(cc3[n+]2[O-])CCC4)C1 (centres unmarked) [Compound 41, N-[2-(3-Methoxy-1-piperidinyl)ethyl]-7,8-dihydro-6H-indeno[5,6-e][1,2,4]triazin-3-amine 1,4-Dioxide]	46 ± 17	19 ± 0.3
					9.9 ± 1.4	245 ± 60	19 ± 2	310 ± 109	[O-][n+]1nc(NCCN2CCOCC2)[n+]([O-])c2cc3c(cc21)CCC3 [Compound 45, N-[2-(4-Morpholinyl)ethyl]-7,8-dihydro-6H-indeno[5,6-e][1,2,4]triazin-3-amine 1,4-Dioxide]	28 ± 11	17 ± 6
					2.8 ± 1.2	217 ± 52	7.1 ± 0.6	399 ± 148	[O-][n+]1nc(NCCN2CCCOCC2)[n+]([O-])c2cc3c(cc21)CCC3 [Compound 49, N-[2-(1,4-Oxazepan-4-yl)ethyl]-7,8-dihydro-6H-indeno[5,6-e][1,2,4]triazin-3-amine 1,4-Dioxide]	86 ± 18	58 ± 26
					10.4 ± 0.6	231 ± 64	22 ± 1	87 ± 3	N#CC1CCN(CCCNc2n[n+]([O-])c3cc4c(cc3[n+]2[O-])CCC4)C1 (centres unmarked) [Compound 57, 1-{3-[(1,4-Dioxido-7,8-dihydro-6H-indeno[5,6-e][1,2,4]triazin-3-yl)amino]propyl}-3-pyrrolidinecarbonitrile]	22 ± 6	4 ± 0.1
					0.32 ± 0.09	194 ± 120	0.54 ± 0.07	195 ± 99	CN(C)CCCc1n[n+]([O-])c2cc3c(cc2[n+]1[O-])CCC3 [Compound 79, N-[3-(1,4-Dioxido-7,8-dihydro-6H-indeno[5,6-e][1,2,4]triazin-3-yl)propyl]-N,N-dimethylamine]	738 ± 523	386 ± 213
					0.58 ± 0.19	300 ± 162	1.3 ± 0.2	262 ± 83	COC1CN(CCCc2n[n+]([O-])c3cc4c(cc3[n+]2[O-])CCC4)C1 [Compound 83, 3-[3-(3-Methoxy-1-azetidinyl)propyl]-7,8-dihydro-6H-indeno[5,6-e][1,2,4]triazine 1,4-Dioxide]	640 ± 411	249 ± 129
					0.35 ± 0.01	133 ± 42	0.63 ± 0.05	161 ± 48	[O-][n+]1nc(CCCN2CCCC2)[n+]([O-])c2cc3c(cc21)CCC3 [Compound 85, 3-[3-(1-Pyrrolidinyl)propyl]-7,8-dihydro-6H-indeno[5,6-e][1,2,4]triazine 1,4-Dioxide]	385 ± 125	249 ± 55
					0.26 ± 0.08	219 ± 96	0.37 ± 0.05	202 ± 72	[O-][n+]1nc(CCCN2CCCCC2)[n+]([O-])c2cc3c(cc21)CCC3 [Compound 87, 3-[3-(1-Piperidinyl)propyl]-7,8-dihydro-6H-indeno[5,6-e][1,2,4]triazine 1,4-Dioxide]	1000 ± 431	598 ± 233
					1.3	95 ± 12	3.6 ± 1.1	121 ± 21	CCc1n[n+]([O-])c2cc3c(cc2[n+]1[O-])CC(CCN1CCOCC1)C3 (centres unmarked) [Compound 164, 3-Ethyl-7-[2-(4-morpholinyl)ethyl]-7,8-dihydro-6H-indeno[5,6-e][1,2,4]triazine 1,4-Dioxide]	84	36 ± 5
					2.6 ± 0.5	127 ± 14	6.3 ± 0.8	158 ± 19	[O-][n+]1nc(NCCCN2CCOCC2)[n+]([O-])c2cc3c(cc21)CCCC3 [Compound 180, N-[3-(4-Morpholinyl)propyl]-6,7,8,9-tetrahydronaphtho[2,3-e][1,2,4]triazin-3-amine 1,4-Dioxide]	54 ± 16	25 ± 3
